Where two headings read alike, the source gives them in different places.
Key:
HDAC7 = biological target: T1, HDAC7 (Homo sapiens, UniProt Q8WUI4); test: HDAC biochemical activity measurement (fluorescent substrate deacetylation);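 also: fluorogenic deacetylation assay using acetyl-lysine substrate at 20 µM, enzyme and compound incubated 30 min at 37 °C, then developer added, fluorescence read at 360/460 nm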; conditions: HDAC7; 37° C. 30 minutes
T1 sequence (Q8WUI4 1-952): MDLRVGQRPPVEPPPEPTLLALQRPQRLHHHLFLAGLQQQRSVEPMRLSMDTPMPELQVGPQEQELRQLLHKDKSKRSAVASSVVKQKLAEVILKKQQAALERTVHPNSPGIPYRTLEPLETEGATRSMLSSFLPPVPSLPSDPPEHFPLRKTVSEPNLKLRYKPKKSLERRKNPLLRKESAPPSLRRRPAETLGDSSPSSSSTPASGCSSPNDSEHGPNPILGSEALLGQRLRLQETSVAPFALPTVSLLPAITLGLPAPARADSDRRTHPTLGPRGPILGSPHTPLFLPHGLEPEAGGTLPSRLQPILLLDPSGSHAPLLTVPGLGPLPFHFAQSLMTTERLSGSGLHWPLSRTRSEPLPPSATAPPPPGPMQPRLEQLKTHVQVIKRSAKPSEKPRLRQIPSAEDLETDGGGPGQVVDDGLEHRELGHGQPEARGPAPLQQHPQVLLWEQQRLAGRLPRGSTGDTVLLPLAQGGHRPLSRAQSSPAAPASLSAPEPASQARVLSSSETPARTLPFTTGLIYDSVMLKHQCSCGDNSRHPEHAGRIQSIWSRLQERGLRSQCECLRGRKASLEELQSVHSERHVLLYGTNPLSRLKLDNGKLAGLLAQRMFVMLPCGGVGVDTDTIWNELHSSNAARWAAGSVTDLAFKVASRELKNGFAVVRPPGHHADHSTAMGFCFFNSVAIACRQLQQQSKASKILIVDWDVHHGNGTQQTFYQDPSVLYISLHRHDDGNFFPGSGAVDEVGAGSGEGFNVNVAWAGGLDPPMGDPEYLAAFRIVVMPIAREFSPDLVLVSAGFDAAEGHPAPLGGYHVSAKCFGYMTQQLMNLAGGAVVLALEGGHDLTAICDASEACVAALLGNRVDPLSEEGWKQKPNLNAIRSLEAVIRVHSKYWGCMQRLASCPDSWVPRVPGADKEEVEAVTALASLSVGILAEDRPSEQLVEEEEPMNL
Description: The chemical activity of the compound is determined according to the degree of deacetylation inhibition of the HDAC enzyme. This experiment measured the degree of deacetylation related to tumor proliferation and metastasis of HDAC1, HDAC2, HDAC3, HDAC8, HDAC11 five subtypes HDAC enzymes. After the substrate containing an acetylated lysine side chain and HDAC enzyme are labeled with a fluorescent label, the fluorescent substrate is de acetyl. The fluorescent labeled substrate is cleaved by the enzyme, and the fluorescent substance is released, which generates 460 nm emission light under the excitation of 360 nm light.
HDAC substrate was diluted with reaction buffer to 200M (reaction concentration of 20M), the HDAC enzyme was diluted to the appropriate concentration, then added different concentrations of the test compounds and acted at 37° C. 30 minutes, and then added the same volume of 2-times concentration substrate developing solution (developer), incubated at room temperature for 15 minutes. Finally, the last reading measured with a microplate plate reader, excitation light was 360 nm, the emitted light was 460 nm, data processing software was Prime 4, and the results are shown in Table 1.

[1] = system: A549 (human lung cancer cells); test: MTT cancer cell growth inhibition; type: cell-based; conditions: MTT, 72 hours incubation, read-out: GI50 A54
Excerpt: (§1) MTT assay principle is yellow MTT can penetrate membrane into the cell, succinic dehydrogenase of the mitochondria in living cells can make exogenous MTT reduction of insoluble in water of blue-violet acicular formazan for crystallization and deposition in the cell, crystallization can be dissolved dimethyl sulfoxide (DMSO) solution, detected its absorbance at 490 nm/570 nm wavelength by enzyme-linked immunosorbent assay, which can reflect the number of cells.
(§2) Using DMEM+10% FBS culture medium or using 1640+10% FBS culture, respectively.
(§3) a) Cells were seeded in 96-well plates with the inoculation of 1500/well, 190 μl/hole, 37° C., 5% of CO2 incubator overnight;
(§4) b) The next day each well was added 10 μl of different drugs. The final concentration of drug was 10^−5˜10^−10M, three parallel holes; 37° C., 5% CO2 culture incubator for 72 hours incubation;
(§5) c) Per well was added 20 μl 5 mg/ml of MTT, 37° C., 5% CO2 culture incubator for 4 hours incubation;
(§6) d) The supernatant was discarded. Each well was added 100 μl of DMSO and oscillation;
(§7) e) 570 nm readings. Calculate cell viability. GI50 calculation based on the results.

[2] = system: BGC-823 (human gastric cancer cells); test: MTT cancer cell growth inhibition; type: cell-based; conditions: MTT, 72 hours incubation, read-out: GI50 BG
Excerpt: as §1, §2, §3, §4, §5, §6, §7

[3] = system: Bel-7402 (human hepatoma cells); test: MTT cancer cell growth inhibition; type: cell-based; conditions: MTT, 72 hours incubation, Bel-7402 cells, read-out: GI50 Bel-7402
Excerpt: as §1, §2, §3, §4, §5, §6, §7

[4] = system: DU145 (human prostate cancer cells); test: MTT cancer cell growth inhibition; type: cell-based; conditions: MTT, 72 hours incubation, read-out: GI50 Du1
Excerpt: as §1, §2, §3, §4, §5, §6, §7

[5] = system: H1975 (non-small cell lung adenocarcinoma); test: MTT cancer cell growth inhibition; type: cell-based; conditions: MTT, 72 hours incubation, H1975 cells, read-out: GI50 H1975
Excerpt: as §1, §2, §3, §4, §5, §6, §7

[6] = system: HCC827 (human non-small cell lung cancer cells); test: MTT cancer cell growth inhibition; type: cell-based; conditions: MTT, 72 hours incubation, HCC827 cells, read-out: GI50 HCC827
Excerpt: as §1, §2, §3, §4, §5, §6, §7

[7] = system: HT1080 (human fibrosarcoma cells); test: MTT cancer cell growth inhibition; type: cell-based; conditions: MTT, 72 hours incubation, read-out: GI50 HT1
Excerpt: as §1, §2, §3, §4, §5, §6, §7

[8] = system: Hela (human cervical cancer cells); test: MTT cancer cell growth inhibition; type: cell-based; conditions: MTT, 72 hours incubation, read-out: GI50 Hela
Excerpt: as §1, §2, §3, §4, §5, §6, §7

[9] = system: Huh-7 (human hepatoma cells); test: MTT cancer cell growth inhibition; type: cell-based; conditions: MTT, 72 hours incubation, Huh-7 cells, read-out: GI50 Huh-7
Excerpt: as §1, §2, §3, §4, §5, §6, §7

[10] = system: K562 (human leukemia cells); test: MTT cancer cell growth inhibition; type: cell-based; conditions: MTT, 72 hours incubation, K562 cells, read-out: GI50 K562
Excerpt: as §1, §2, §3, §4, §5, §6, §7

[11] = system: KBM-5 (human chronic myelogenous leukemia); test: MTT cancer cell growth inhibition; type: cell-based; conditions: MTT, 72 hours incubation, KBM-5 cells, read-out: GI50 KBM-5
Excerpt: as §1, §2, §3, §4, §5, §6, §7

[12] = system: KBM5-T315I (human chronic myelogenous leukemia); test: MTT cancer cell growth inhibition; type: cell-based; conditions: MTT, 72 hours incubation, KBM5-T315I cells, read-out: GI50 KBM5-T315I
Excerpt: as §1, §2, §3, §4, §5, §6, §7

[13] = system: MCF-7 (human breast cancer cells); test: MTT cancer cell growth inhibition; type: cell-based; conditions: 72 hours incubation, read-out: GI50 MCF
Excerpt: as §1, §2, §3, §4, §5, §6, §7

[14] = system: MDA-MB-231 (breast cancer cells); test: MTT cancer cell growth inhibition; type: cell-based
Excerpt: as §1, §2, §3, §4, §5, §6, §7

[15] = system: MOLT-4 (human acute lymphoblastic leukemia cells); test: MTT cancer cell growth inhibition; type: cell-based; conditions: MTT, 72 hours incubation, read-out: GI50 Mol
Excerpt: as §1, §2, §3, §4, §5, §6, §7

[16] = system: N-87 (human gastric cancer cells); test: MTT cancer cell growth inhibition; type: cell-based; conditions: MTT, 72 hours incubation, N-87 cells, read-out: GI50 N-87
Excerpt: as §1, §2, §3, §4, §5, §6, §7

[17] = system: PANC-1 (Pac-1, human pancreatic cancer cells); test: MTT cancer cell growth inhibition; type: cell-based; conditions: MTT, 72 hours incubation, read-out: GI50 PAN
Excerpt: as §1, §2, §3, §4, §5, §6, §7

[18] = system: SGC-7901 (human gastric cancer cells); test: MTT cancer cell growth inhibition; type: cell-based; conditions: MTT, 72 hours incubation, SGC-7901 cells, read-out: GI50 SGC-7901
Excerpt: as §1, §2, §3, §4, §5, §6, §7

[19] = system: U937 (human leukemia cells); test: MTT cancer cell growth inhibition; type: cell-based; conditions: MTT, 72 hours incubation, read-out: GI50 U93
Excerpt: as §1, §2, §3, §4, §5, §6, §7

[20] = system: lncap (prostate cancer cells); test: MTT cancer cell growth inhibition; type: cell-based; conditions: MTT, 72 hours incubation, read-out: GI50 lnca
Excerpt: as §1, §2, §3, §4, §5, §6, §7

[21] = Homo sapiens, MDA-MB-231, 72 h, read-out: GI50 MDA-MB-231, MTT, 72 hours incubation, MDA-MB-231 cells

Row | IC50 HDAC7 (HDAC7) | GI50 ([3]; Homo sapiens, Bel-7402, 72 h) [nM] | GI50 ([5]; Homo sapiens, NCI-H1975, 72 h) [nM] | GI50 ([6]; Homo sapiens, HCC827, 72 h) [nM] | GI50 ([9]; Homo sapiens, Huh-7, 72 h) [nM] | GI50 ([10]; Homo sapiens, K562, 72 h) [nM] | GI50 ([11]; Homo sapiens, KBM5, 72 h) [nM] | GI50 ([12]; Homo sapiens, 72 h) [nM] | GI50 [14, 21] [nM] | GI50 ([16]; Homo sapiens, 72 h) [nM] | GI50 ([18]; Homo sapiens, SGC-7901, 72 h) [nM] | GI50 ([1]; Homo sapiens, A549, 72 h) [nM] | GI50 ([2]; Homo sapiens, BGC-823, 72 h) [nM] | GI50 ([4]; Homo sapiens, DU-145, 72 h) [nM] | GI50 ([7]; Homo sapiens, HT-1080, 72 h) [nM] | GI50 ([8]; Homo sapiens, HeLa, 72 h) [nM] | GI50 ([13]; Homo sapiens, MCF7, 72 h) [nM] | GI50 ([15]; Homo sapiens, MOLT-4, 72 h) [nM] | GI50 ([17]; Homo sapiens, PANC-1, 72 h) [nM] | GI50 ([19]; Homo sapiens, U-937, 72 h) [nM] | Compound | further results
1 | no activity | 53 | 38 | 75 | 47 | 28 | 29 | 71 | 53 | 63 | 12 | – | – | – | – | – | – | – | – | – | C/C=C1\NC(=O)c2cc(SC)cc(n2)CNC(=O)C[C@@H](/C=C/CCSC(=O)CCCCC)OC(=O)[C@H](C(C)C)NC1=O [Compound 154] | GI50 ([1]; Homo sapiens, A549, 72 h, A549 cells): 40 nM; GI50 ([2]; Homo sapiens, BGC-823, 72 h, BGC-823 cells): 40 nM; GI50 ([4]; Homo sapiens, DU-145, 72 h, DU145 cells): 50 nM; GI50 ([7]; Homo sapiens, HT-1080, 72 h, HT1080 cells): 90 nM; GI50 ([8]; Homo sapiens, HeLa, 72 h, Hela cells): 40 nM; GI50 ([13]; Homo sapiens, MCF7, 72 h, MCF-7 cells): 50 nM; GI50 ([15]; Homo sapiens, MOLT-4, 72 h, MOLT-4 cells): 90 nM; GI50 ([17]; Homo sapiens, PANC-1, 72 h, PANC-1 cells): 40 nM; GI50 ([19]; Homo sapiens, U-937, 72 h, U937 cells): 40 nM; GI50 ([20]; Homo sapiens, LNCaP, 72 h, lncap cells): 40 nM
2 | no activity | 49 | 33 | 38 | 51 | 79 | 41 | 37 | 29 | 33 | 81 | 30 | 100 | 60 | 50 | 130 | 20 | 90 | 30 | 70 | C/C=C1\NC(=O)c2ccc(F)c(n2)CNC(=O)C[C@@H](/C=C/CCS)OC(=O)[C@H](Cc2cccc3ccccc23)NC1=O [Compound 126] | GI50 ([20]; Homo sapiens, LNCaP, 72 h): 20 nM
3 | no activity | – | – | – | – | – | – | – | – | – | – | – | – | – | – | – | – | – | – | – | C/C=C1\NC(=O)c2cc(SC)cc(n2)CNC(=O)C[C@@H](/C=C/CCSC(C)=O)OC(=O)[C@H](C)NC1=O [Compound 214] | GI50 ([1]; A549 cells): 90 nM; GI50 ([2]; BGC-823 cells): 20 nM; GI50 [3]: 71 nM; GI50 ([4]; DU145 cells): 40 nM; GI50 [5]: 63 nM; GI50 [6]: 35 nM; GI50 ([7]; HT1080 cells): 40 nM; GI50 ([8]; Hela cells): 60 nM; GI50 [9]: 41 nM; GI50 [10]: 71 nM; GI50 [11]: 19 nM; GI50 [12]: 73 nM; GI50 ([13]; MCF-7 cells): 50 nM; GI50 ([14]; read-out: GI50 MDA-MB-231, MTT, 72 hours incubation, MDA-MB-231 cells): 15 nM; GI50 ([15]; MOLT-4 cells): 50 nM; GI50 [16]: 95 nM; GI50 ([17]; PANC-1 cells): 40 nM; GI50 [18]: 68 nM; GI50 ([19]; U937 cells): 50 nM; GI50 ([20]; lncap cells): 110 nM
4 | no activity | 66 | 68 | 43 | 31 | 27 | 56 | 76 | 19 | 12 | 35 | 60 | 20 | 30 | 30 | 50 | 30 | 30 | 30 | 20 | C/C=C1\NC(=O)c2nc(ccc2F)CNC(=O)C[C@@H](/C=C/CCS)OC(=O)[C@H](C(C)C)NC1=O [Compound 106] | GI50 ([20]; Homo sapiens, LNCaP, 72 h): 30 nM

From patent US10065990B2, “Cyclic peptide compound, and preparation method, pharmaceutical composition and use thereof” (HANGZHOU GUANYU BIO-MEDICAL CO., LTD, priority 2013, dated 2018)
